Earlier results on seven compounds are cited in US20230173142A1, “BALLISTIC DELIVERY TO MULTILAYERED TISSUES AND RELATED PARTICLES, COMPOSITIONS, METHODS AND SYSTEMS” (CALIFORNIA INSTITUTE OF TECHNOLOGY, priority 2021, published 2023).

The test system of series [1] is ear hole punch injury. The note with it: multiple peripheral subcutaneous injections of hydrogel over a 10-day period; Swiss Webster mice.
Series [2] deals with human cadaver corneas.
For series [3], the target named is T1, lysyl oxidase (LOX) (Homo sapiens, UniProt P28300).
T1 sequence (P28300 169-417): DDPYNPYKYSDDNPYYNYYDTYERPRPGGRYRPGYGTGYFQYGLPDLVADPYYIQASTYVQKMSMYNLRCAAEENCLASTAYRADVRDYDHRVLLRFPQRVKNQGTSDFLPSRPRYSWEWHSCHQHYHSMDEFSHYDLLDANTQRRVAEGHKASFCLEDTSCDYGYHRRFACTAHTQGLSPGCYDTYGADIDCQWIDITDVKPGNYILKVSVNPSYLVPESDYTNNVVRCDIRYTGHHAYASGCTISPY
The note with it: increasing [Cu^2+].

For series [4], the system named is rabbit cornea. The note with it: rabbit cornea treated topically.
Series [5] relates to rabbit corneas. As to conditions: rabbit corneas ex vivo.
In series [6] the test system is wound healing.

“Also recorded” adds a separate entry of the source. Like-named read-outs stand apart in the source and are kept apart here.

With `O=C(O)c1c[nH]c2c(ccc3cccnc32)c1=O` [1,4-DPCA, 1,4-dihydrophenonthrolin-4-one-3-carboxylic acid], the “wound healing after ear hole punch injury” value in series [1] is “regenerative wound healing”. Consider `[Cu+2]` [Copper], for which the biomechanical strength entry in series [2] and in series [5] was “increase biomechanical strength” each time. Further, the LOX activity entry in series [3] is recorded as “restore LOX activity”. The “crosslinking as measured by LNL” value in series [4] is recorded as “increase crosslinking”. As for “EGF: growth factor loaded in carrier material”, the Effect entry in series [6] (Material: Nanoparticle) is “Accelerated migration of inflammatory cells during the inflammation; also recorded: Enhanced wound closure, collagen deposition, angiogenesis, and”. For the compound SDF-1: stromal cell-derived factor-1, the Effect result in series [6] (Material: Hydrogel) was “Accelerated wound healing and increased vascularization”. As for VEGF, the Effect entry in series [6] (Material: Hydrogel) is given as “Enhanced wound healing, granulation, collagen deposition,”; in series [6] (Material: Lyotropic liquid crystal) it was “Enhanced vascularization”. As to “aFGF: growth factor/cytokine loaded in hydrogel”, the Effect result in series [6] (Material: Hydrogel) is “Accelerated cell proliferation, neo-vascularization, and wound healing”.

Regarding “bFGF: growth factor/cytokine loaded in carrier material”, the Effect result in series [6] (Material: Concentrate) was “Enhanced wound closure, angiogenesis, collagen deposition,”; in series [6] (Material: Hydrogel), “Enhanced wound closure, collagen deposition, vascularization,; also recorded: Enhanced wound closure, organized collageno depostion,; also recorded: Enhanced the formation of granulation tissue, increased angiogenesis,”.
